Tests used:
Format in all cases: in vivo
maize [1] = experiment: Test D post-emergence, maize seed treated with a herbicide safener
Method: (§1) A formulation containing 50 g/L of the test chemical was prepared by dissolving the active ingredient in a mixture of organic solvents and emulsifier, details of which are provided in the table. This formulation was then mixed with a small, variable amount of acetone to aid dissolution, before addition of a 0.2% v/v aqueous solution of an adjuvant, as the aqueous diluent, to form an aqueous spray solution which contains a predetermined concentration of the active ingredient.
(§2) This aqueous spray solution was then sprayed onto plants including maize and wheat that had been seed treated with a herbicide safener, after one day's cultivation (for pre-emergence) or after about 12 days' cultivation (for post-emergence). The plants were grown from seeds sown in standard soil, placed in a glasshouse under controlled conditions (at 24/18° C. or 20/16° C., day/night; 16 h light; 65% humidity). After spray application the plants were then grown in a glasshouse under the same conditions and watered twice daily. After 15 d for post-emergence and 20 DAA for pre-emergence the test was evaluated (100=total damage to plant; 0=no damage to plant).

maize [2] = experiment: Test D pre-emergence, maize seed treated with a herbicide safener; conditions: ZEAMX, preemergent, 20 DAA
Method: as §1, §2

[3] = system: barnyardgrass (Echinochloa crus-galli, ECHCG); experiment: Test A pre-emergence, barnyardgrass; conditions: after 13 d
Procedure, shortened: (§3)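 Seeds sown in pots of standard soil and sprayed one day later, pre-emergence, at 15.625, 62.5 or 250 g/ha in acetone/water (50:50) with 0.5% Tween 20. Grown in glasshouse at 24/16 °C, 14 h light, 65% humidity. Damage scored after 13 d (0 none, 100 total).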

corn (Zea mays, ZEAMX) = experiment: Test A pre-emergence, corn; conditions: after 13 d
Procedure, shortened: as §3

wheat = experiment: Test D post-emergence, wheat seed treated with a herbicide safener; conditions: "Cereals" Postemergent
Method: as §1, §2

[4] = Rates 130, evaluated after 15 d
[5] = Rates 250, evaluated after 15 d
[6] = Rates 500, evaluated after 15 d

CN1C[C@H](c2nn(C)c3c(F)cccc23)[C@@H](C(=O)Nc2cccc(F)c2F)C1=O [Compound 2]
damage to plant (100=total damage to plant; 0=no damage to plant), ZEAMX (maize [1]; rate 130, evaluated after 15 d): 0 | damage to plant (100=total damage to plant; 0=no damage to plant), ZEAMX (maize [1]; rate 250, evaluated after 15 d): 0 | damage to plant (100=total damage to plant; 0=no damage to plant), ZEAMX (maize [1]; rate 500, evaluated after 15 d): 20 | damage to plant (100=total damage to plant; 0=no damage to plant), ZEAMX (maize [2]; rate 15): 0 | damage to plant (100=total damage to plant; 0=no damage to plant), ZEAMX (maize [2]; rate 30): 0 | damage to plant (100=total damage to plant; 0=no damage to plant), ZEAMX (maize [2]; rate 60): 0 | damage to plant (100=total damage to plant; 0=no damage to plant), ZEAMX (maize [2]; rate 130): 0 | damage to plant (100=total damage to plant; 0=no damage to plant), ZEAMX (maize [2]; rate 250): 0 | damage to plant (100=total damage to plant; 0=no damage to plant), ZEAMX (maize [2]; rate 500): 10 | damage to plant (100=total damage; 0=no damage) ECHCG ([3]; Pre-Emergence at 15.625 g/ha): 90 | damage to plant (100=total damage; 0=no damage) ECHCG ([3]; Pre-Emergence at 62.5 g/ha): 90 | damage to plant (100=total damage; 0=no damage) ECHCG ([3]; Pre-Emergence at 250 g/ha): 90 | damage to plant (100=total damage; 0=no damage) ZEAMX (corn (Zea mays, ZEAMX); Pre-Emergence at 15.625 g/ha): 0 | damage to plant (100=total damage; 0=no damage) ZEAMX (corn (Zea mays, ZEAMX); Pre-Emergence at 62.5 g/ha): 0 | damage to plant (100=total damage; 0=no damage) ZEAMX (corn (Zea mays, ZEAMX); Pre-Emergence at 250 g/ha): 10 | TRZAW damage rating (100=total damage to plant; 0=no damage to plant) (wheat; [4]): 20 | TRZAW damage rating (100=total damage to plant; 0=no damage to plant) (wheat; [5]): 20 | TRZAW damage rating (100=total damage to plant; 0=no damage to plant) (wheat; [6]): 60

CN1CC(c2cc(C(F)(F)F)n(C)n2)C(C(=O)Nc2ccc(F)cc2F)C1=O (racemic) [Compound 6]
damage to plant (100=total damage to plant; 0=no damage to plant), ZEAMX (maize [1]; rate 130, evaluated after 15 d): 0 | damage to plant (100=total damage to plant; 0=no damage to plant), ZEAMX (maize [1]; rate 250, evaluated after 15 d): 10 | damage to plant (100=total damage to plant; 0=no damage to plant), ZEAMX (maize [1]; rate 500, evaluated after 15 d): 20 | damage to plant (100=total damage to plant; 0=no damage to plant), ZEAMX (maize [2]; rate 15): 0 | damage to plant (100=total damage to plant; 0=no damage to plant), ZEAMX (maize [2]; rate 30): 0 | damage to plant (100=total damage to plant; 0=no damage to plant), ZEAMX (maize [2]; rate 60): 0 | damage to plant (100=total damage to plant; 0=no damage to plant), ZEAMX (maize [2]; rate 130): 0 | damage to plant (100=total damage to plant; 0=no damage to plant), ZEAMX (maize [2]; rate 250): 0 | damage to plant (100=total damage to plant; 0=no damage to plant), ZEAMX (maize [2]; rate 500): 0 | damage to plant (100=total damage; 0=no damage) ECHCG ([3]; Pre-Emergence at 15.625 g/ha): 80 | damage to plant (100=total damage; 0=no damage) ECHCG ([3]; Pre-Emergence at 62.5 g/ha): 90 | damage to plant (100=total damage; 0=no damage) ECHCG ([3]; Pre-Emergence at 250 g/ha): 90 | damage to plant (100=total damage; 0=no damage) ZEAMX (corn (Zea mays, ZEAMX); Pre-Emergence at 15.625 g/ha): 10 | damage to plant (100=total damage; 0=no damage) ZEAMX (corn (Zea mays, ZEAMX); Pre-Emergence at 62.5 g/ha): 20 | damage to plant (100=total damage; 0=no damage) ZEAMX (corn (Zea mays, ZEAMX); Pre-Emergence at 250 g/ha): 60 | TRZAW damage rating (100=total damage to plant; 0=no damage to plant) (wheat; [4]): 0 | TRZAW damage rating (100=total damage to plant; 0=no damage to plant) (wheat; [5]): 10 | TRZAW damage rating (100=total damage to plant; 0=no damage to plant) (wheat; [6]): 20
